This note sets out measurements from patent US11141410B2 (MERCK SHARP & DOHME CORP., priority 2015, dated 2021).

SMILES strings stand for the structures.

Assay [1] deals with MRSA COL (MB5393). Description: TarO Inhibitor/β-Lactam Synergy Assay (growth, OD600). The format is cell-based, Staphylococcus aureus. Conditions: for MITC95 TarO inhibitor + 4 μg/mL IPM; Bacteria: SA_MB5393: in combination with 4 μg/mL imipenem (IPM); for MITC95 TarO inhibitor + 8 μg/mL DCX; Bacteria: SA_MB5393: in combination with 8 μg/mL dicloxacillin (DCX). How it is done:
The TarO inhibitor/β-lactam synergy assay was performed to measure the re-sensitization of methicillin-resistant Staphylococci bacteria (MB5393: MRSA COL) to β-lactam antibiotics by TarO inhibitors. MRSA COL is a hospital-acquired penicillinase-negative clinically isolated strain commonly used in Staphylococcus aureus studies and is fully resistant to the antimicrobial bioactivity of β-lactam antibiotics, including but not limited to imipenem and dicloxacillin. […] MRSA COL is fully refractory to β-lactam antibiotic effect at the current clinical breakpoint concentrations and as such MRSA COL is fully viable at these concentrations.
The β-lactam antibiotic concentration was fixed at the clinical breakpoint (imipenem 4 μg/ml or dicloxacillin 8 μg/ml) and the TarO inhibitors were titrated by 2 fold starting from the highest concentration of 200 μM with final DMSO concentration of 2% in the assay. 5×10^5 colony forming unit of MRSA COL in cation-adjusted Mueller Hinton broth (CAMHB) was then mixed and the assay plate was incubated for 20 hours at 37° C. without shaking. After 20 hours, the optical density at 600 nm (OD600) was read for all wells to determine relative growth of MRSA COL.

Assay [2] relates to MRSA COL (MB5393). Described as above. Format: cell-based. The settings on record: Staphylococcus aureus, TarO inhibitor alone, >200 μM = 95% growth inhibition not achieved, 20 hours at 37° C., read-out: MITC95 TarO inhibitor alone, Bacteria: SA_MB5393.

For `C[C@@H]1CN(C(=O)NCc2cncc3ccccc23)C(=O)OC1c1cc(C(F)(F)F)cc(C(F)(F)F)c1` (stereo in doubt) [Example 93, (5R,6S)-6-(3,5-bis(trifluoromethyl)phenyl)-N-(isoquinolin-4-ylmethyl)-5-methyl-2-oxo-1,3-oxazinane-3-carboxamide], in the assay with MRSA COL (MB5393) [1], the “MITC95 TarO inhibitor + 4 μg/mL IPM; Bacteria: SA_MB5393” value (“MITC95 TarO inhibitor + 4 μg/mL IPM” for short) was determined as 0.13 µM and the “MITC95 TarO inhibitor + 8 μg/mL DCX; Bacteria: SA_MB5393” value (from here on “MITC95 TarO inhibitor + 8 μg/mL DCX”) came out at 0.50 µM. The IC95 in the assay on MRSA COL (MB5393) [2] was over 200 µM.
On the same counts, the results for `C[C@H]1[C@@H](c2cc(C(F)(F)F)cc(C(F)(F)F)c2)OC(=O)N1C(=O)NCc1cncc2ccccc12` [Example 1, (4S,5R)-5-(3,5-bis(trifluoromethyl)phenyl)-N-(isoquinolin-4-ylmethyl)-4-methyl-2-oxooxazolidine-3-carboxamide] are 0.03 µM, 0.39 µM and over 200 µM.
On the same counts, the results for `C[C@H]1[C@@H](c2cc(C(F)(F)F)cc(C(F)(F)F)c2)OC(=O)N1C(=O)NCc1cccc2ccnn12` [Example 2, (4S,5R)-5-[3,5-bis(trifluoromethyl)phenyl]-4-methyl-2-oxo-N-(pyrazolo[1,5-a]pyridin-7-ylmethyl)-1,3-oxazolidine-3-carboxamide] are 0.01 µM, 0.21 µM and over 200 µM.
The like results for `C[C@H]1[C@@H](c2cc(F)cc(C(F)(F)F)c2)OC(=O)N1C(=O)NCc1ccccc1[N+](=O)[O-]` [Example 3, (4S,5R)-5-[3-fluoro-5-(trifluoromethyl)phenyl]-4-methyl-N-(2-nitrobenzyl)-2-oxo-1,3-oxazolidine-3-carboxamide] were, in that order, 0.33 µM, 2.60 µM and over 200 µM.
Turning to `C[C@H]1[C@@H](c2cc(C(F)(F)F)cc(C(F)(F)F)c2)OC(=O)N1C(=O)NCc1cncc2cccnc12` [Example 4, (4S,5R)-5-[3,5-bis(trifluoromethyl)phenyl]-4-methyl-N-(1,6-naphthyridin-8-ylmethyl)-2-oxo-1,3-oxazolidine-3-carboxamide], in the assay with MRSA COL (MB5393) [1], the “MITC95 TarO inhibitor + 4 μg/mL IPM” value is 0.13 µM and the “MITC95 TarO inhibitor + 8 μg/mL DCX” value is 0.39 µM. The IC95 in the assay on MRSA COL (MB5393) [2] was over 200 µM.
On the same counts, the results for `C[C@H]1[C@@H](c2cc(F)cc(C(F)(F)F)c2)OC(=O)N1C(=O)NCc1ccccc1OC(F)F` [Example 5, (4S,5R)-N-[2-(difluoromethoxy)benzyl]-5-[3-fluoro-5-(trifluoromethyl)phenyl]-4-methyl-2-oxo-1,3-oxazolidine-3-carboxamide] are 0.09 µM, 0.71 µM and over 200 µM.
On the same counts, the results for `C[C@H]1[C@@H](c2cc(F)cc(C(F)(F)F)c2)OC(=O)N1C(=O)NCc1cccc2ccccc12` [Example 6, (4S,5R)-5-[3-fluoro-5-(trifluoromethyl)phenyl]-4-methyl-N-(naphthalen-1-ylmethyl)-2-oxo-1,3-oxazolidine-3-carboxamide] are 0.01 µM, 0.02 µM and over 200 µM.
The like results for `C[C@H]1[C@@H](c2cc(F)cc(C(F)(F)F)c2)OC(=O)N1C(=O)NCc1ccccc1C(F)(F)F` [Example 7, (4S,5R)-5-[3-fluoro-5-(trifluoromethyl)phenyl]-4-methyl-2-oxo-N-[2-(trifluoromethyl)benzyl]-1,3-oxazolidine-3-carboxamide] were, in that order, 0.05 µM, 0.33 µM and over 200 µM.
For the molecule `COc1ccccc1CNC(=O)N1C(=O)O[C@H](c2cc(F)cc(C(F)(F)F)c2)[C@@H]1C` [Example 8, (4S,5R)-5-[3-fluoro-5-(trifluoromethyl)phenyl]-N-(2-methoxybenzyl)-4-methyl-2-oxo-1,3-oxazolidine-3-carboxamide], in the assay with MRSA COL (MB5393) [1], the “MITC95 TarO inhibitor + 4 μg/mL IPM” value was 0.13 µM and the “MITC95 TarO inhibitor + 8 μg/mL DCX” value stood at 1.32 µM. The IC95 with MRSA COL (MB5393) [2] is over 200 µM.
Turning to `C[C@H]1[C@@H](c2cc(F)cc(C(F)(F)F)c2)OC(=O)N1C(=O)NCc1cccc(N(C)C)c1` [Example 9, (4S,5R)-N-[3-(dimethylamino)benzyl]-5-[3-fluoro-5-(trifluoromethyl)phenyl]-4-methyl-2-oxo-1,3-oxazolidine-3-carboxamide], in the assay with MRSA COL (MB5393) [1], the “MITC95 TarO inhibitor + 4 μg/mL IPM” value stood at 0.22 µM and the “MITC95 TarO inhibitor + 8 μg/mL DCX” value was determined as 1.65 µM. In addition, the IC95 with MRSA COL (MB5393) [2] is over 200 µM.
The like results for `C[C@H]1[C@@H](c2cc(C(F)(F)F)cc(C(F)(F)F)c2)OC(=O)N1C(=O)NCc1cccc2nccnc12` [Example 10, (4S,5R)-5-[3,5-bis (trifluoromethyl)phenyl]-4-methyl-2-oxo-N-(quinoxalin-5-ylmethyl)-1,3-oxazolidine-3-carboxamide] were, in that order, 0.06 µM, 0.37 µM and over 200 µM.
In the case of `C[C@H]1[C@@H](c2cc(F)cc(C(F)(F)F)c2)OC(=O)N1C(=O)NCc1cccc2c1OCCO2` [Example 11, (4S,5R)-N-(2,3-dihydro-1,4-benzodioxin-5-ylmethyl)-5-[3-fluoro-5-(trifluoromethyl)phenyl]-4-methyl-2-oxo-1,3-oxazolidine-3-carboxamide], in the assay on MRSA COL (MB5393) [1], the “MITC95 TarO inhibitor + 4 μg/mL IPM” value is 0.13 µM and the “MITC95 TarO inhibitor + 8 μg/mL DCX” value was determined as 1.42 µM. The IC95 in the assay with MRSA COL (MB5393) [2] was over 200 µM.
The like results for `C[C@H]1[C@@H](c2cc(F)cc(C(F)(F)F)c2)OC(=O)N1C(=O)NCc1cccc2cc[nH]c12` [Example 12, (4S,5R)-5-[3-fluoro-5-(trifluoromethyl)phenyl]-N-(1H-indol-7-ylmethyl)-4-methyl-2-oxo-1,3-oxazolidine-3-carboxamide] were, in that order, 0.25 µM, 1.56 µM and over 200 µM.
The like results for `CCOc1ccccc1CNC(=O)N1C(=O)O[C@H](c2cc(F)cc(C(F)(F)F)c2)[C@@H]1C` [Example 13, (4S,5R)-N-(2-ethoxybenzyl)-5-[3-fluoro-5-(trifluoromethyl)phenyl]-4-methyl-2-oxo-1,3-oxazolidine-3-carboxamide] were, in that order, 0.06 µM, 0.35 µM and over 200 µM.
Take `C[C@H]1[C@@H](c2cc(F)cc(C(F)(F)F)c2)OC(=O)N1C(=O)NCc1nccc2sccc12` [Example 14, (4S,5R)-5-[3-fluoro-5-(trifluoromethyl)phenyl]-4-methyl-2-oxo-N-(thieno[3,2-c]pyridin-4-ylmethyl)-1,3-oxazolidine-3-carboxamide]: in the assay on MRSA COL (MB5393) [1], the “MITC95 TarO inhibitor + 4 μg/mL IPM” value was 0.49 µM and the “MITC95 TarO inhibitor + 8 μg/mL DCX” value stood at 5.63 µM. In the assay on MRSA COL (MB5393) [2], the IC95 was over 200 µM.
Regarding `C[C@H]1[C@@H](c2cccc(C(F)(F)F)c2)OC(=O)N1C(=O)NCc1cncc2cccnc12` [Example 15, (4S,5R)-4-methyl-N-(1,6-naphthyridin-8-ylmethyl)-2-oxo-5-[3-(trifluoromethyl)phenyl]-1,3-oxazolidine-3-carboxamide], in the assay with MRSA COL (MB5393) [1], the “MITC95 TarO inhibitor + 4 μg/mL IPM” value was 0.98 µM and the “MITC95 TarO inhibitor + 8 μg/mL DCX” value worked out at 4.69 µM. For the same molecule, in the assay on MRSA COL (MB5393) [2], the IC95 is over 200 µM.
As for `Cc1ccccc1CNC(=O)N1C(=O)O[C@H](c2cc(F)cc(C(F)(F)F)c2)[C@@H]1C` [Example 16, (4S,5R)-5-[3-fluoro-5-(trifluoromethyl)phenyl]-4-methyl-N-(2-methylbenzyl)-2-oxo-1,3-oxazolidine-3-carboxamide], in the assay with MRSA COL (MB5393) [1], the “MITC95 TarO inhibitor + 4 μg/mL IPM” value was determined as 0.38 µM and the “MITC95 TarO inhibitor + 8 μg/mL DCX” value turned out to be 3.52 µM. The IC95 in the assay on MRSA COL (MB5393) [2] is over 200 µM.
For the molecule `C[C@H]1[C@@H](c2cc(C(F)(F)F)cc(C(F)(F)F)c2)OC(=O)N1C(=O)NCc1nccc2ccoc12` [Example 17, (4S,5R)-5-[3,5-bis(trifluoromethyl)phenyl]-N-(furo[2,3-c]pyridin-7-ylmethyl)-4-methyl-2-oxo-1,3-oxazolidine-3-carboxamide], in the assay on MRSA COL (MB5393) [1], the “MITC95 TarO inhibitor + 4 μg/mL IPM” value worked out at 0.39 µM and the “MITC95 TarO inhibitor + 8 μg/mL DCX” value was 4.30 µM. In the assay on MRSA COL (MB5393) [2], the IC95 was over 200 µM.
The like results for `C[C@H]1[C@@H](c2cc(C(F)(F)F)cc(C(F)(F)F)c2)OC(=O)N1C(=O)NCC1CCCc2ccccc21` (stereo partly drawn) [Example 19, (4S,5R)-5-[3,5-bis(trifluoromethyl)phenyl]-4-methyl-2-oxo-N-(1,2,3,4-tetrahydronaphthalen-1-ylmethyl)-1,3-oxazolidine-3-carboxamide] were, in that order, 0.15 µM, 1.45 µM and over 200 µM.
For the molecule `Cc1onc(-c2c(Cl)cccc2Cl)c1C(=O)N[C@@H]1C(=O)N2[C@@H]1SC(C)(C)[C@@H]2C(=O)O` [dicloxacillin, reference compound], the “MITC95 concentration of β-lactam antibiotic alone” value in the assay on MRSA COL (MB5393) [1] (β-lactam alone, MRSA COL) was 128 µg/mL.
